From patent publication US10272110B2, “Methods for promoting HSC engraftment” (CHILDREN'S MEDICAL CENTER CORPORATION, priority 2006, dated 2019) come the findings set out here.

The subject of one data set is embryonic hematopoiesis. Put plainly: RA / DEAB treatment of wild-type and kgg zebrafish embryos. Type of data set: in vivo.
Data set [1] deals with ES cell-derived embryoid bodies. Put plainly: Hematopoietic colonies from ES cell-derived embryoid bodies treated with DEAB or RA. To be noted: added to EBs between days two to three. Type of data set: cell-based, mouse. The source says:
DEAB and RA also affected the formation of mouse hematopoietic progenitors arising from ES cell-derived embryoid bodies (EBs). […] See also Davidson et al., 425 Nature 300-06 (2003); Davidson & Zon, 292(2) Devel. Biol. 506-18 (2006).

Data set [2] has as its system runx1/cmyb+ AGM HSCs. To be noted: for effect on AGM HSCs in zebrafish embryos (in words): exposure from three somites to 36 hpf, runx1/cmyb staining. On the procedure:
A chemical genetic screen was conducted to identify novel pathways that modulate definitive HSC formation during zebrafish embryogenesis. FIG. 1. Genes such as runx1 and cmyb, required for HSC development during mammalian hematopoiesis, are expressed in the ventral wall of the dorsal aorta in a region analogous to the mammalian AGM at thirty-six hours post-fertilization (hpf). […] Wild-type embryos were incubated with individual compounds from the three-somite stage until thirty-six hpf. Probes for runx1 and cmyb were combined and utilized to detect HSCs by in situ hybridization.
Wild-type age-matched embryos were arrayed into 48-well plates (˜5 embryos/well) of individual test compounds and exposed from 3-somites until 36 hpf. […] In situ hybridization for runx1 and cmyb was performed to assess HSCs. Compounds were retested at 10 μM, 20 μM, and 50 μM. Stem cell specificity was assessed using flk1 at 36 hpf. PGE2, PGI2, dmPGE2 and all cox inhibitors (Sigma) were used at 10 μM to 20 μM.
Qualitative scoring (# embryos with altered HSCs/# scored) of runx1/cmyb was conducted using the following criteria: Normal/unchanged=continuous line of runx1/cmyb+ endothelial cells and occasional hematopoietic clusters. Decreased/absent=reduction in runx1/cmyb+ cells, including the presence of large gaps in the line of HSCs, isolated positive cells, or absence of expression. Increased/excess=enhancement in runx1/cmyb^+ cells, including many HSC clusters, a thickened line of HSCs, or ectopic expression.

In another data set the test system is vasculature (flk1). To be noted: zebrafish, in vivo, 10 μM. On the procedure:
Wild-type age-matched embryos were arrayed into 48-well plates (˜5 embryos/well) of individual test compounds and exposed from 3-somites until 36 hpf. Three compound libraries were utilized: NINDS Custom Collection (1040), SpecPlus Collection (960) and BIOMOL ICCB Known Bioactives (480). […] In situ hybridization for runx1 and cmyb was performed to assess HSCs. Compounds were retested at 10 μM, 20 μM, and 50 μM. Stem cell specificity was assessed using flk1 at 36 hpf. PGE2, PGI2, dmPGE2 and all cox inhibitors (Sigma) were used at 10 μM to 20 μM.

In a further data set the test system is cmyb/lmo2+ HSCs. Put plainly: Confocal quantification of HSCs in cmyb:GFP x lmo2:dsRed bigenic embryos. Type of data set: in vivo, zebrafish. The following applies: 36 hpf live embryos. On the procedure: A long-acting derivative, 16,16-dimethyl-PGE2 (dmPGE2, 10 μM) caused an increase in runx1/cmyb+ AGM HSCs in 78% of embryos examined (97/124). AGM HSCs were inhibited by indomethacin (10 μM) treatment in 90% of embryos analyzed (92/102). […] Transgenic cmyb:GFP zebrafish with green fluorescent HSCs and myeloid progenitor cells were crossed to lmo2:dsRed fish that have red fluorescent endothelial cells and HSCs to visualize the effects of chemical exposure in vivo. […] FIG. 3.
Live 36 hpf treated bigenic zebrafish embryos were embedded in 1% low-melting point agarose containing 0.4 mg/ml Tricaine-S for confocal imaging. cmyb-GFP transgenic reporter lines were created from a BAC containing the cmyb promoter genomic sequence (Galloway, Zhu, Lin, Zon, unpublished); lmo2:DsRed fish were created as described^27. For HSC quantification, cmyb/lmo2+ positive cells were counted in projections of z-stack images (n=10/treatment).

The subject of another data set is runx1, cmyb expression. Put plainly: qPCR of HSC gene expression in treated zebrafish embryos. Type of data set: in vivo.
In a further data set the test system is PGE2 formation. Put plainly: HPLC-tandem mass spectrometry of PGE2 in zebrafish embryos. To be noted: 36 hpf embryos, n=3; untreated 18+/−6. The class given is in vivo. On the procedure:
PGE2 and the stable PGI2 metabolite, 6-keto-PGF1α, were measured using HPLC-tandem mass spectrometry. Ethylacetate extracts from homogenized embryos were spiked with the corresponding stable isotope labeled internal standards (d4-PGE2 and d4-6-keto PGF1α) and allowed to react with methoxylamine. The following mass transitions were monitored: m/z 384→272 (PGE), m/z 398→368 (6-keto PGF1α and TxB2).

The subject of the next data set is mouse ES cells. Put plainly: ES cell hematopoietic differentiation assays (M3434 methylcellulose and OP9 colony assays). The class given is cell-based. The following applies: indomethacin 20 μM (OP9) and 100 μM (GM). On the procedure: ES cell hematopoietic differentiation assays were performed as previously described. […] M3434 methylcellulose colony forming and OP9 colony assays were conducted on day 6 and analyzed at […], respectively. Colony type was identified by morphological analysis; duplicate chemical exposures were averaged to determine the reported colony number (n=3 replicates minimum).

Data set [3] relates to CFU-S from murine bone marrow cells. Put plainly: Murine colony-forming units-spleen (CFU-S). Type of data set: in vivo, mouse. On the procedure: Two independent BM samples were treated (n=5/treatment×2 replicates) for each variable. Recipient mice were lethally irradiated with a split dose of 10 Gy. 6×10^4 unfractionated dmPGE2 or control-treated BM cells were injected retro-orbitally into irradiated recipient mice. Spleens were dissected on day eight or twelve, weighed and fixed with Bouin's solution; hematopoietic colonies per spleen were counted. 1×10^5 cells/recipient were transplanted after treatment with the cox inhibitors. FACS sorted ckit^+sca1^+lineage^− BM cells were treated as above and transplanted at a dose of either 100 cells/recipient or 300 cells/recipient.

Data set [4] concerns wnt activity. Put plainly: wnt reporter TOP:dGFP zebrafish embryos. The following applies: vs control. Type of data set: in vivo. The source says: Clinical experience in patients with APC mutations has shown that inhibition of prostaglandin synthesis results in decreased wnt mediated polyp formation. […] These interactions were examined in vivo using a wnt reporter zebrafish transgenic line, TOP:dGFP. At fifty-percent epiboly, embryos were subjected either to nothing (control), indomethacin, or PGE2, and the amount of wnt signaling activated in the embryo assessed by GFP induction driven from the wnt binding site. Analysis of alterations in GFP expression in the head was analyzed by in situ hybridization. […] FIG. 12.

In data set [5] the test system is runx1/cmyb+ AGM HSCs. Put plainly: Heat shock wnt-pathway transgenic embryos treated with PG drugs: AGM HSC formation. Type of data set: in vivo, zebrafish. To be noted: hs:wnt8 embryos heat shocked at five somites. On the procedure: More specifically, Wnt signaling through its main transcriptional mediator β-catenin plays an important role in controlling tissue patterning, cell fate decisions, and proliferation in many embryonic contexts, including the development and differentiation of organs. […] Whether wnt signaling has a role during HSC formation in zebrafish was determined using heat shock inducible activators and repressors of the wnt pathway. Briefly, wnt-inducible embryos were harvested and heat shocked for twenty minutes at 38° C. Genotypes were sorted by GFP expression, and the AGM HSCs analyzed by runx1/cmyb expression in situ. […] This is the first evidence in any organism that wnt signaling is required for AGM HSC formation.
Additionally, indomethacin and dmPGE2 was used to investigate the interaction of the wnt and prostaglandin pathways during HSC development and in marrow recovery following injury. FIG. 13 reflects the potential points of interaction of the PG and wnt pathways. […] Furthermore, dmPGE2 can rescue the inhibitory effects of dkk activation on AGM HSC formation at 36 hpf, as shown by in situ hybridization for runx1/cmyb.

In data set [6] the test system is wnt activity. Put plainly: wnt activity in kidney marrow of irradiated Top:dGFP adults. Type of data set: in vivo, zebrafish. To be noted: day three post irradiation. On the procedure:
(§1) To determine if prostaglandin pathway manipulation can alter wnt activity in the kidney marrow repopulation in the adult, the effects of dmPGE2 and indomethacan was examined further in Top:dGFP lines. […] FIG. 14. To discern whether modulation of prostaglandin signaling can modify the wnt mediated effects on kidney marrow recovery following irradiation, wnt genes were activated by heat shock at 38° C. at two days post irradiation and then. exposure to prostaglandin pathway drugs at one day post heat shock. The hs:wnt8-GFP fish were exposed to indomethacin, while the dkk1, axin, and dnTCF transgenic fish were exposed to dmPGE2. Whole kidney marrow was analyzed by FACS on day ten post-irradiation.

Data set [7] relates to kidney marrow precursor cell population. The data set can be described thus: Kidney marrow recovery after irradiation in heat shock wnt transgenic adults treated with PG drugs. The class given is in vivo, zebrafish. To be noted: hs:wnt8-GFP adults, day ten post-irradiation. On the procedure: An irradiation recovery assay was also employed to investigate the role of wnt signaling in hematopoietic homeostasis in zebrafish. Transgenic fish expressing wnt-related genes were sublethally irradiated and heat shock gene induction was initiated by overnight incubation at 38° C. on day two post-irradiation. Kidney marrow was harvested at various timepoints post-irradiation as outlined previously for the prostaglandin experiments. FIG. 11. […] Inhibition of wnt signaling, by heat shock dkk or dnTCF, drastically alters the kinetics of marrow recovery and can result in the complete failure of marrow regeneration and lethality.
as §1

Data set [8] has as its system wnt activity. Put plainly: wnt activity in the AGM of TOP:gal mice. The following applies: mouse, in vivo.

Entries after “also recorded” stand apart in the source; their conditions may differ.

In the case of `CCN(CC)c1ccc(C=O)cc1` [DEAB], in the data set on embryonic hematopoiesis, the “erythroid cells in wild-type embryos” value is recorded as “induced an expansion of erythroid cells”, the “expression of hoxa9a in kgg embryos” value is recorded as “failed to rescue” and the “hematopoiesis in kgg mutants” value was “restored hematopoiesis”. Further, in data set [1], the “increase in 'primitive' erythroid colonies (CFU-Ep)” value is recorded as “five-eight fold”.

For `COc1ccc2c(c1)c(CC(=O)O)c(C)n2C(=O)c1ccc(Cl)cc1` [Indomethacin], the “embryos with AGM HSCs inhibited” value with runx1/cmyb+ AGM HSCs [2] (10 μM) was 90%. Besides, the “decreased runx1/cmyb+ HSCs (# embryos altered/# scored)” value in the data set on runx1/cmyb+ AGM HSCs [2] (10 μM, 36 hpf) is 92/102. Also, in the data set with runx1/cmyb+ AGM HSCs [2], the “effect on AGM HSCs in zebrafish embryos (in words)” value was “reduced stem cells in the aorta”. For the same compound, in the data set with vasculature (flk1), the “embryos with slightly altered intersomitic vessels” value stood at 30%. Moreover, the “embryos with slightly altered intersomitic vessels (# altered/# examined)” value with vasculature (flk1) was 15/49. For the same compound, the “HSC numbers along the floor of the aorta by confocal microscopy (in words)” value with cmyb/lmo2+ HSCs was “significantly decreased numbers of HSCs”. Further, the “cmyb expression by qPCR (in words)” value in the data set on runx1, cmyb expression (10 μM) is given as “significant alterations”. Moreover, the “runx1 expression by qPCR, reduction” value with runx1, cmyb expression (indomethacin 10 μM) stood at 50%. In addition, the “PGE2 formation after treatment” value in the data set with PGE2 formation is given as less than 2 pg/50 embryos. In addition, the colony growth result in the data set with mouse ES cells is “inhibited colony growth”. Also, in [3] (WBM ex vivo 1 μM/10^6 cells, 1×10^5 cells transplanted), the “number of CFU-S12, decrease” value turned out to be 70%. The “CFU-S12 Colony Number” value in data set [3] (Whole Marrow, 100000 cells transplanted, 1 μM/10^6 cells ex vivo, EtOH 8.8 (2.1)) is on record as 2.5 (1.4). The “wnt activity (GFP expression) in TOP:dGFP embryos” value with wnt activity [4] (listed as indo) is reported as “virtual absence of wnt activity”; in the data set with wnt activity [4] (listed as indomethacin), “severely reduced GFP expression”. The “effect on wnt8-mediated enhancement of runx1/cmyb expression / HSC induction” value in the data set on runx1/cmyb+ AGM HSCs [5] (listed as indo) is on record as “reversed”; in the data set with runx1/cmyb+ AGM HSCs [5] (listed as indomethacin), “can be blocked”. Also, the “wnt activity (GFP) in kidney marrow of Top:dGFP adults” value in the data set with wnt activity [6] is “inhibited GFP expression”. In addition, the entries for the “effect on wnt-mediated enhancement of the kidney marrow precursor cell population” value in [7] (listed as Indo) and in data set [7] (listed as indomethacin) were “blocked” and “severely diminish”, respectively.

For the compound `CCCCC[C@H](O)/C=C/[C@H]1[C@H](O)CC(=O)[C@@H]1C/C=C\CCCC(=O)O` [PGE2, prostaglandin E2], in the data set with runx1/cmyb+ AGM HSCs [2] (20 μM, 36 hpf), the “increased runx1/cmyb expression (# embryos altered/# scored)” value is given as 25/49. For the same compound, the “effect on AGM HSCs in zebrafish embryos (in words)” value in the data set with runx1/cmyb+ AGM HSCs [2] is “stronger expression of runx1/cmyb than PGI2; also recorded: increase moderately”. Further, the “wnt activity (GFP expression) in TOP:dGFP embryos” value in the data set with wnt activity [4] is given as “markedly enhanced wnt activity”. Moreover, the “wnt activity in the AGM of TOP:gal mice” value in the data set with wnt activity [8] was “induced wnt activity”.
